Data: US20240239762A1, “NOVEL HETEROCYCLIC COMPOUNDS” (FLORATEK PHARMA S.A., priority 2021, published 2024)
“Also recorded” adds a separate entry of the source. Like-named read-outs stand apart in the source and are kept apart here.

Legend:
[1] = test system: C. elegans; assay: Lifespan assay on the Automated Lifespan Machine; assay type: in vivo, Caenorhabditis elegans; details: 50 μM; for Max life span: 95th percentile of lifespans in each group; for Mean life span: calculated from the area under the survival curve; for Median life span: day 1 set at day 1 of adulthood, time at which 50% of the worms have died
Excerpt: To prevent chemical modification or metabolism of the test article by the food bacteria, worms were fed on a lawn of UV-killed bacteria (UV-i bacteria). An overnight culture of E. coli strain WP-2 was pelleted, washed, filtered, and irradiated. A suspension of UV-i bacteria was spotted on NGM agar containing Streptomycin to inhibit the growth of contaminating bacteria. The quantity and distribution of food bacteria were calibrated to ensure adequate access to food for the duration of assay while maintaining visibility of the worms.
Test compounds were soluble in 100% DMSO. The compounds were dissolved in a working solution and then combined directly with the food bacteria before seeding on agar plates. The food spots are dried slowly, allowing the compound to diffuse into the food bacteria and the agar for at least 24 hours before worms were introduced.
The ALM used by InVivoBiosystems is based on the Caenorhabditis elegans lifespan machine published by Stroustrup et. Al [Stroustrup, N. et al. The Caenorhabditis elegans Lifespan Machine. Nat Methods 10, 665-670 (2013)], with proprietary modifications to improve temperature stability and image acquisition. The scanner unit consisted of a modified EPSON V850 and images were processed and analyzed using the ALM software. The machine time-of-death calls are trained and validated using the “storyboarding” feature of the ALM software.
The lifespan assay was designed and performed according to published and validated methods [Amrit, F. R. G., Ratnappan, R., Keith, S. A. & Ghazi, A. The C. elegans lifespan assay toolkit. Methods 68, 465-475 (2014).] using a modified version of the Automated Lifespan Machine 7.
The lifespan assay was initiated by expanding all replicate groups to more than 1000 worms, then synchronizing by bleaching and allowing larval worms to hatch and arrest. To suppress progeny, worms were transferred to media containing 5-Fluorodeoxyuridine (FUdR) within 54-60 hours post-plating. Worms were inspected 24 and 48 hours after this transfer to confirm infertility. Finally, the worms were inspected for general health and morphology before transferring to scanner plates. The scanner plates were transferred to scanners for automated imaging on day 3 of adulthood.
Plates were immobilized inverted on the bed of an Automated Lifespan Machine which scanned two images per hour of the plates continuously for the next 40 days.
Time of death calls exported from the ALM software was analyzed and plotted using the Lifelines software package developed by Cam Davidson-Pilon et. al [Davidson-Pilon, C et. al. Lifelines survival analysis package. CamDavidsonPilon/lifelines: vo. 25-9.]. Additional analysis was performed using the OASIS2 analysis software6.
Worm movement was tracked from the images acquired by the ALM during the lifespan assay. Worm size and movement features were extracted and analyzed using custom software.

[2] = test system: C. elegans; assay: Global gene expression by mRNA sequencing (RNA-Seq), GO enrichment and pathway mapping; assay type: in vivo, Caenorhabditis elegans
Description: To identify potential mechanisms of action through which SND305 and SND306 could affect aging, global gene expression was analyzed by mRNA sequencing (RNA-Seq). Worms were treated on the same media and conditions as the lifespan assay, then young worms were harvested at adult day 3 and aged worms harvested at adult day 10. Three replicates of treated samples were analyzed.
More than 300 day 1 adult worms per replicate were harvested, cleaned by filtration, and frozen at −80° in Trizol. To extract RNA, samples were thawed, vigorously vortexed, and processed using the Direct-zol RNA Miniprep Kit (Zymo Research). All samples exceeded the threshold for RNA quantity and quality.
The total RNA was then enriched for poly-mRNA using oligo(dT) paramagnetic beads. DNA libraries were then constructed from this input mRNA using the NEBNext Ultra™ II RNA Library Prep Kit. This created a ready-to-sequence dsDNA library that retained the strand-specific information in the original mRNA. These libraries were then further tested by the Qubit for concentration and the Agilent 2100 for library size distribution and quality. In order to properly pool the libraries and load them onto sequencing lanes to ensure the correct number of reads per sample, an even more precise quantification of the library was done via qPCR, and the samples were loaded onto the NovaSeq 6000 platform for a paired-end sequencing run of 150 bp for each end (PE150). The loading concentrations were designed to obtain at least 6.0 Gb (which is the number of billion bases of raw data, determined by the number of reads multiplied by the length of each read).
The raw data set was analyzed for • 1. The distribution of base quality along the length of the sequencing read • 2. The distribution of error rate along the length of the sequencing read • 3. The distribution of A/T/G/C bases along the length of the sequencing read • 4. The distribution of raw data filtering results based on the following three criteria: • a. Removing reads containing adapter sequence • b. Removing reads with N>10% (where N means “base cannot be determined”) • c. Removing reads with a low quality (Qscore<=5) for 50% or more of its total bases
Multidimensional scaling makes it possible to see strong patterns in large, complex data sets by reducing the data to two or three dimensions. When the data is plotted along these few dimensions, the samples form clustered based on their overall similarity to one another. The distance between samples is calculated based on the Biological Coefficient of Variation (BCV). Greater differences were observed between all conditions at Day 10 than at Day 3. To identify genes that are differentially expressed upon treatment with SND305 and SND306, the gene counts for each of the treated samples were compared against the control.
GO enrichment analysis is a common approach that identifies functional groups form lists of differentially expressed genes. Genes are annotated based on functional categories (gene ontologies) that are further categorized by biological process (BP), molecular function (MF), or cellular compartment (CC). A comparison is made between the likelihood of seeing genes in that category (ontology) being enriched or depleted in the list of DEGs when compared to a random selection of genes.
In order to identify which cellular pathways were most likely modulated by treatment with SND305 and SND306 and gain insight into how these pathways might contribute to mechanism of action (MoA), the genes differentially expressed after SND305 and SND306 treatment were mapped to core established longevity pathways from the literature. The mapping was then expanded to intersecting and supporting pathways. This placed the transcriptomic data within the context of well-characterized biological pathways, particularly several related to longevity.

[3] = test system: C. elegans strain SD1347; assay: Age-related sarcopenia model: muscle mitochondrial fragmentation scoring; assay type: in vivo, Caenorhabditis elegans; details: day 11; 50 μM; ANOVA and multiple comparisons (FIG. 8)
Description: C. elegans strain SD1347 confirmed to have nuclear and mitochondrial GFP labeling in muscle was obtained from the Caenorhabditis Genetic Center.
Synchronized worm populations were administered a single concentration of 50 μM SND compounds by exposure on NGM plates starting the day before adulthood. All plates contained 50 μM 5-Fluorodeoxyuridine (FUdR) to prevent progeny production. Animals were immobilized using NemaGel (InVivo Biosystems) and imaged within 1 hour. Worms were alive throughout imaging. For each worm imaged, one head and one tail image was collected from regions excluding the pharynx, vulva, and tip of the tail. For day 1, a single session imaged a minimum of 5 worms per condition.
For aged worms, two total biological replicates were collected, each with 5-6 worms imaged per condition. Images were obtained using a Nikon Eclipse Ti2 spinning disk confocal microscope. After processing, each image was scored blindly in replicate groups by six viewers.
Stock solutions of SND compounds were prepared by dissolving to 50 mM in DMSO. Working solutions were prepared such that the final concentration of compound in the total volume of the solid media would be 50 μM, and the DMSO concentration would not exceed 0.1% (e.g. 10 μl in a 10 mL dish). […]

[4] = test system: C. elegans; details: cited from earlier work
[5] = aged (Day 10) worms, weighted by the p-value

| SMILES | Max life span [1] [days] | Mean life span [1] [days] | Median life span [1] [days] | Effect on lifespan [1] | Noteable GO categories enriched or depleted, Down ([2]; Day 3) | Noteable GO categories enriched or depleted, Up ([2]; Day 3) | Noteable GO categories enriched or depleted, Down ([2]; Day 10) | Noteable GO categories enriched or depleted, Up ([2]; Day 10) | Expression of genes specifically involved in axon regeneration ([2]; Day 10 (FIGS. 4 and 5)) | Differentially expressed genes above threshold (volcano plot) ([2]; Day 10, P-value<0.05 and fold change >2.0) | CTSB expression, fold down- [2, 5] [fold] | CTSD expression, fold down- [2, 5] [fold] | LAMP expression, fold up- [2, 5] [fold] | Expression of cathepsin orthologs cpr-1, cpr-4, cpr-9 ([2]; day 3 (FIGS. 2 and 3)) | Insulin Signaling (IIS) Pathway components daf-18, akt-1, and daf-16 ([2]; day 3 (FIGS. 2 and 3)) | Sum of the mitochondrial fragmentation scores per image vs control [3] | Accumulation of dysfunctional mitochondria with age [4] | Effect on lifespan [4] |
| --- | --- | --- | --- | --- | --- | --- | --- | --- | --- | --- | --- | --- | --- | --- | --- | --- | --- | --- |
| CO[C@H]1C[C@@H]2CC[C@@H](C)[C@@](O)(O2)C(=O)C(=O)N2CCCC[C@H]2C(=O)O[C@H]([C@H](C)C[C@@H]2CC[C@@H](O)[C@H](OC)C2)CC(=O)[C@H](C)/C=C(\C)[C@@H](O)[C@@H](OC)C(=O)[C@H](C)C[C@H](C)/C=C/C=C/C=C/1C [Rapamycin, reference compound] | 33.0 | 26.2 | 26.5 |  |  |  |  |  |  |  |  |  |  |  |  |  |  |  |
| CC(C)NC(=O)Oc1ccc2c(c1)COc1cc(OC(=O)NC(C)C)ccc1-2 [SND306] | 34.6 | 25.8 | 26.6 | increased the life span with statistical significance | hydrolase activity | structural constituent of cuticle (e.g. collagen), immune response, lipid | extracellular region, immune response, response to other organism | enrichment in genes involved with axon development and regeneration; also recorded: nervous system development, neurogenesis, regulation of gene expression | upregulation | a large number of DEGs above threshold | > 5 | > 5 | > 5 | upregulated | slight modulation | significantly less fragmentation than the control |  |  |
| O=c1oc2cc(O)ccc2c2ccc(O)cc12 [Urolithin A, urolithin A] |  |  |  |  |  |  |  |  |  |  |  |  |  |  |  | did not reach statistical significance | prevented the accumulation of dysfunctional mitochondria with age | extended lifespan |
